Experimental data: US6867235B2, “Helianthrone derivatives as anti-cancer agents” (Yeda Research and Development Co. Ltd., priority 2000, dated 2005)

Assays:
LAN5 neuroblastoma cells = assay: MTT cell viability in complete darkness, LAN5 cells; type: cell-based, human; details: exposure at least 72 hours, 0.1-20 μM
Protocol: (§1) Human HL-60 leukemic cells were grown in RPMI-1640 supplemented with 15% fetal calf serum, […] and 100 units/ml penicillin-streptomycin. Human erythroleukemia K-562 cells (derived from a chronic myeloid leukemia pateient) were grown in the same medium supplemented with 10% fetal calf serum. These cells and the human U251 glioblastoma, U87MG glioblastoma and LAN5 neuroblastoma cells used in the experiments are available from the ATCC. All cell lines were cultured in a humidified 5% CO2/95% air atmosphere at 37° C.
(§2) Cell viability was monitored by the MTT assay which measures reduction of 3-(4,5-dimethylthiazol-2-yl)-2,5-diphenyl tetrazolium bromide to formasan by mitochondria of viable cells as described in Mossman, T., J. Immunogen., 21, 235-248 (1983). The cells are incubated with MTT for four hours at 37° C. and analyzed in an ELISA reader at 560 nm. The optical density of formasan generated by untreated cell cultures (O.D. control) is defined as one MTT unit. The number of MTT units in culture samples undergoing treatments is calculated as the ratio (O.D.sample−O.D.blank)/O.D.control).
(§3) Three human malignant cell lines were evaluated to sensitivity to dimethyl TMH in vitro. […] The medium was aspirated, the adherent monolayer was washed with phosphate-buffered saline, and cell viability was monitored by the MTI assay.

[1] = test system: human malignant glioblastoma cell lines; assay: Photodynamic induction of cell death in glioblastoma cell lines with light; type: cell-based
Protocol: Cell killing by dimethyl-TMH occurred at doses in which hypericin had no effect on the cultures. […] The mechanisms that operate in the dark were very different from those that mediate light-induced photosensitization. In the dark, cell death occurs approximately four days after the compound is administered, whereas the cells died within 2-3 hours with light.
Photodynamic (PD) stress is the level of phototoxicity inflicted upon target cells by photodynamic compounds and exposure to light. Light irradiation was performed from a fluorescent source of two parallel 40 Watts tubes placed at a fixed distance of 16 cm and measured to emit an incidence of 4 mWatt/cm^2. Light intensities were quantitated using the IL 1350 Radiometer/Photometer, from International Light Inc., U.S.A.

[2] = test system: human peripheral blood lymphocytes (PBL); assay: MTT viability of primary peripheral blood lymphocytes in the dark and with light; type: cell-based; details: 72 hours
Protocol: as §2
Human peripheral blood lymphocytes (PBL) are non-proliferating cells in the absence of mitogenic stimuli. The effects of different doses of dimethyl-TMH on PBL were examined in the presence or absence of irradiation with polychromatic white light. PBL (post-mitotic) were plated (2×10^5 cells/well) in two separate round bottom 96-well plates (in triplicates). Dimethyl-TMH was added to the cultures. One plate was kept in the dark, and the other was exposed to polychromatic white light at a fluence rate of 8 mW/cm^2 for 30 min (a total of 14.4 J/cm^2). Both plates were then cultured at 37° C., 5% CO2 for 72 hours and cell viability was assayed by the MTT assay.

[3] = test system: U251 human glioblastoma cells; type: cell-based; details: U251, complete darkness, exposure at least 72 hours, 0.1-20 μM
Protocol: as §1, §2
Three human malignant cell lines were evaluated to sensitivity to dimethyl TMH in vitro. […] The medium was aspirated, the adherent monolayer was washed with phosphate-buffered saline, and cell viability was monitored by the MTI assay. […]

[4] = test system: SQ2 highly metastatic anaplastic squamous cell carcinoma; assay: Survival of SQ2 squamous cell carcinoma-bearing mice treated with dimethyl-TMH; type: in vivo, BALB/c mice
Protocol: In another experiment, BALB/c mice were inoculated with 5×10^5 cells of the SQ2 highly metastatic anaplastic squamous cell carcinoma line, intradermally in shaved backs. When the primary tumors reached a diameter of 3-4 mm, i.p. administration of dimethyl TMH 200 μg/mouse (400 μM/mouse) was initiated on day 7 after tumor cell inoculation and then administered twice weekly to the tumor-bearing mice 2× per week for six weeks (total of 12 doses). Animal survival was then followed. […] This appears to be the result of reduced metastatic growth as evident from Table 1 in Example 4 above.

[5] = Tolerability of intraperitoneal administration in mice; type: in vivo, BALB/c mice; details: i.p. on a daily basis for one week
[6] = test system: SQ2 anaplastic squamous cell carcinoma; assay: Tumor foci in BALB/c mice bearing SQ2 squamous cell carcinoma treated with dimethyl-TMH; type: in vivo; details: for number of tumor foci / multifocal spread of the tumor: SQ2 tumor-bearing mice versus control
Protocol: The effective cytocidal activity of dimethyl-TMH in vitro encouraged the evaluation of its safety and anti-tumoral efficacy profile in tumor-bearing mice. Experiments were carried out in mice bearing tumors derived from the SQ2 highly metastatic anaplastic squamous cell carcinoma (SCC) line. This tumor develops as multifocal centers that spread at the vicinity of the primary tumor and metastases develop approximately two months after cell inoculation. Treatments with 300-600 μM dimethyl-TMH/mouse, administered twice or three-times a week were initiated when the tumors reached 5-7 mm in diameter.
When the primary tumors reached a diameter of 5 mm, therapy with 300 μM dimethyl-TMH/mouse, administered intraperitoneally twice per week, was initiated. Three weeks after the initiation of therapy, the number of tumor foci, which have developed at the primary tumor site, was recorded.

[7] = test system: anaplastic squamous cell carcinoma tumors; assay: Tumor growth in mice bearing anaplastic squamous cell carcinoma tumors; type: in vivo, BALB/c mice; details: 200 μg/mouse every other day
tumor neovascularization = assay: Tumor neovascularization in tumor-bearing mice; details: mouse, in vivo
From the text: These hitherto unknown attributes were detected while studying the effects of hypericin and of helianthrone derivatives on breast adenocarcinoma tumors induced in mice with the DA-3^HI cell line and on murine anaplastic squamous carcinoma tumors induced with the SQ-2 cell line. Both are highly metastatic tumors and if surgically resected after having reached a diameter larger than 5 mm, the mice will go on to develop metastases in the lungs and liver. The metastases cause death of the animals within approximately two months following surgery.
By preventing development of new blood vessels to supply a growing metastasis, the rapidly growing metastatic focus is deprived of nutrients and oxygen for its rapidly multiplying cells and the lesion degenerates.

U87MG glioblastoma cells = assay: MTT cell viability in complete darkness, U87MG cells; type: cell-based, human
Protocol: as §1, §2, §3

[8] = test system: U251 human glioblastoma cells; assay: Cell cycle and DNA content analysis (propidium iodide, FACS) in the dark; type: cell-based; details: for cell cycle arrest: U251, dark
From the text: The cells were then stained with propidium iodide, washed with PBS and analyzed in a fluorescence activated cell sorter (FACS). A computer program arranged the DNA-related fluorescence as follows: the minimal amount of fluorescence is considered to be one whole set of cellular DNA related to the resting G1 phase. A double amount of fluorescence is considered to be G2 phase, in which the whole genome is duplicated following complete DNA synthesis, and the in-between amounts are considered to be the DNA synthetic S-phase, in which the total DNA synthesis is not yet completed.

[9] = 300 μM/mouse i.p. twice per week
[10] = 21 days after start of therapy, 300 μM/mouse i.p. twice per week

COc1cc(OC)c2c3c(OC)cc(OC)c4c(=O)c5ccc(C)cc5c(c43)c3c4cc(C)ccc4c(=O)c1c23 [dimethyl-TMH, 10,13-dimethyl-1,3,4,6-tetramethoxy-helianthrone]
cell viability (MTT) (LAN5 neuroblastoma cells): Cell viability was lost
photodynamic induction of cell death compared with hypericin ([1]; treatment in conjunction with light): more potent than hypericin
time to cell death ([1]; with light): 2 to 3 h
effect on cell viability ([2]; normal non-proliferating PBL, absence of light irradiation): no effect
LD50 (cell death after photosensitization) ([2]; polychromatic white light 8 mW/cm2 for 30 min (14.4 J/cm2), MTT): approximately 0.65 μM
cell viability (MTT) [3]: Cell viability was lost
prolongation of animal survival compared to untreated controls ([4]; 200 μg/mouse (400 μM/mouse) i.p. twice weekly for six weeks (12 doses)): approximately 40.3%
primary tumor growth during the treatment ([4]; 200 μg/mouse i.p. twice weekly for six weeks): continued to grow
adverse effect on the animals [5]: no adverse effect
toxicity of therapeutic doses to the animals [6, 9]: non-toxic
treated mice in which the primary tumors hardened and fell off [6, 9]: 5
number of mice with 1 focus [6, 10]: 8
number of mice with 2 foci [6, 10]: 1
number of mice with 3 foci [6, 10]: 0
number of mice with 4 foci [6, 10]: 0
number of tumor foci / multifocal spread of the tumor [6]: considerably reduced
number of tumor foci / multifocal spread of the tumor ([6]; listed as dimethyl TMH): completely inhibited
tumor growth compared to untreated tumor-bearing control mice [7]: significant inhibition of tumor growth
neovascularization of tumors (tumor neovascularization): prevented neovascularization
cell viability (MTT) (U87MG glioblastoma cells; complete darkness, exposure at least 72 hours, 0.1-20 μM): Cell viability was lost
loss of cell viability compared with hypericin (U87MG glioblastoma cells; in the dark): more effective than the treatment with hypericin
proportion of cells in the S-phase with duration of exposure ([8]; 10 μM, 24, 48, 72 hours): increased steadily
cell cycle arrest ([8]; 10 μM): arrest at mid-S phase
cell cycle arrest ([8]; 20 μM): exclusive arrest at the S phase
phases of the cell replication cycle at which malignant cells are arrested ([8]; glioblastoma and neuroblastoma cells): mid S and G2 phases
